Literature values as cited in patent US20070166227A1, “Crowned dithiocarbamate metal complexes and methods for their use” (priority 2004, published 2007).

O=C(O)C1CCCN1C(=S)[S-].O=C(O)C1CCCN1C(=S)[S-].[Cu+2] (centres unmarked) [Cu(ProDTC)2]
binding affinity for NO: log β1 (log β1): 9.74 | binding affinity for NO: log β2 (log β2): 15.44
